From patent US8691818B2, “Cyclic triazo and diazo sodium channel blockers” (University Of Greenwich, priority 2008, dated 2014)
Where two headings read alike, the source gives them in different places.

Assays:
[1] = system: sodium channel; assay: [14C]guanidine flux: veratrine-evoked uptake of [14C]guanidine into rat forebrain synaptosomes (primary sodium channel assay); format: biochemical; conditions: 30° for 2½ min
Method in brief: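 Synaptosomal fraction from male Wistar rat forebrain (without cerebellum/medulla), 20-25 mg wet weight/ml. Veratrine-evoked [14C]guanidine uptake at 30° for 2½ min across a compound concentration range; IC50 from concentration-effect curves, mean±sem.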

[2] = biological target: hERG (Homo sapiens, UniProt Q12809); assay: hERG: inhibition of binding of [3H]astemizole to HEK-293 cells expressing human recombinant hERG; conditions: for inhibition at 10 µM: human, probe [3H]astemizole; for hERG % inhibition @ 10 μM: [3H]astemizole binding
[3] = biological target: T1, DiHydroFolate Reductase (DHFR) (Rattus norvegicus, UniProt Q920D2); assay: Inhibition of binding of [3H]methotrexate to rat liver homogenate supernatant; conditions: for inhibition at 125 µM: read-out: [3H]mtx binding (% inhibition @ 125 μM)
T1 construct: from tissue; host or cells: rat liver homogenate supernatant
T1 sequence (Q920D2 1-187): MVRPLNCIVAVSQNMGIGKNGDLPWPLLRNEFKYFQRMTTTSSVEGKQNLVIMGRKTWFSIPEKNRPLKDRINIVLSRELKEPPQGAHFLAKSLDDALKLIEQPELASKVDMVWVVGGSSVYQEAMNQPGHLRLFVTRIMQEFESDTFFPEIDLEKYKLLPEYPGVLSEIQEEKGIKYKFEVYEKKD
Method in brief: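 Displacement of [3H]methotrexate binding to rat liver homogenate supernatant, prepared at 4 °C in pH 6.0 phosphate buffer with 15 mM dithiothreitol. Values are mean±sem over the number of experiments shown.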

[4] = read-out: hERG IC50 (μM) (extrapolated from 10 μM inh'n), extrapolated assuming binding slope 1.0

Chain of hERG (Q12809 whole entry): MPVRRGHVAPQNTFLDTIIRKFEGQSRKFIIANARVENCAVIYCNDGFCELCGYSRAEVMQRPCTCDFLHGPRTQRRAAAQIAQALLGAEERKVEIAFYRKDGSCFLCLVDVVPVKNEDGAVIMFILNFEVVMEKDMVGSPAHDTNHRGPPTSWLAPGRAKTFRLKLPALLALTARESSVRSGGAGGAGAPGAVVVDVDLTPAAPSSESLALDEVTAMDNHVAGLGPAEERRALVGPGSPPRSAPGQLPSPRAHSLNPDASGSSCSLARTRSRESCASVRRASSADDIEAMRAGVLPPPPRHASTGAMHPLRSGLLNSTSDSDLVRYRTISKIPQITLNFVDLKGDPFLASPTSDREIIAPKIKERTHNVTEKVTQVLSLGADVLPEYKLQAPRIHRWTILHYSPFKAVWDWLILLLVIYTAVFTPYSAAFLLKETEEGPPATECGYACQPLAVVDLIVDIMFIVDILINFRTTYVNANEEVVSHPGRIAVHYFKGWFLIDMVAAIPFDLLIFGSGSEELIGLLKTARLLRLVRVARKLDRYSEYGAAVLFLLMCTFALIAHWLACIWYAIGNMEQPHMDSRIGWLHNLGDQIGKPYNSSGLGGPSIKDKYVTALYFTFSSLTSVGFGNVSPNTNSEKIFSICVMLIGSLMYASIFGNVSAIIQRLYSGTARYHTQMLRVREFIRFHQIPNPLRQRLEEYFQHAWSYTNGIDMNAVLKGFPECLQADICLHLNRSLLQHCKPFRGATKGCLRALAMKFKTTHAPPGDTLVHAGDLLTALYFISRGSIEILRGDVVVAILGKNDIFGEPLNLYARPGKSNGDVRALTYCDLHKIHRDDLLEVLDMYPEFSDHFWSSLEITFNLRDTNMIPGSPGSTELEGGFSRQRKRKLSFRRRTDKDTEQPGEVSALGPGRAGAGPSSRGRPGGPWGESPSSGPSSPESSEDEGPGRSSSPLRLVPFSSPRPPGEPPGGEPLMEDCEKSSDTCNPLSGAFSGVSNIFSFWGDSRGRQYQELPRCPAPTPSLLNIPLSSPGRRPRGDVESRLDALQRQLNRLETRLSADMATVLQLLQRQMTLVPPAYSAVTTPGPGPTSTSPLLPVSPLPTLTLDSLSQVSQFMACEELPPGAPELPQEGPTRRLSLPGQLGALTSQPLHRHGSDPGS

Row | IC50 [1] | inhibition at 125 µM ([3]; 125 μM) | melting point | Molecule | also measured
1 | 141 µM | 46% |  | CCn1nc(-c2cccs2)c(N)nc1=N [CEN-62, 5(3)-Amino-6-(2-thienyl)-2,3(2,5)-dihydro-3(5)-imino-2-ethyl-1,2,4-triazine methanesulfonate] | IC50 [2]: > 200 µM; inhibition at 10 µM [2]: -13%
2 | 58.9 µM | -12% | 134 to 136 °C | Cc1ccc(-c2nnc(N)nc2-c2ccc(C)cc2)cc1 [CEN-126, 3-Amino-5,6-bis(4-methylphenyl)-1,2,4-triazine] | IC50 [2]: 3 µM; inhibition at 10 µM [2]: 79%
3 | 372 µM |  |  | COc1ccc2cc(C(C)c3nnc(N)nc3N)ccc2c1 (stereo not shown) [CEN-165, 3,5-Diamino-6-[1-(6-methoxynaphthalene)ethy)-1,2,4-triazine] | hERG % inhibition @ 10 μM [2]: 23%; IC50 [2, 4]: 34 µM; [3H]mtx binding (% inhibition @ 125 μM) ([3]; 125 μM): −4%
4 | 16 µM | -7% |  | Cn1nc(-c2cccc(-c3ccccc3)c2)c(N)nc1=N [CEN-161, 5(3)-Amino-6-(3-biphenyl)-2,3(2,5)-dihydro-3(5)-imino-2-methyl-1,2,4-triazine methanesulfonate] | IC50 [2]: 1 µM; inhibition at 10 µM [2]: 88%
5 | 77.6 µM | 6% |  | Cn1nc(-c2ccc3ccccc3c2)c(N)nc1=N [CEN-76, 5(3)-Amino-6-(2-naphthyl)-2,3(2,5)-dihydro-3(5)-imino-2-methyl-1,2,4-triazine methanesulfonate] | IC50 [2]: 4 µM; inhibition at 10 µM [2]: 74%
6 | 195 µM | 18% |  | Cn1nc(-c2cccc3c2CCCC3)c(N)nc1=N [CEN-120, 5(3)-Amino-6-[1-(5,6,7,8-tetrahydronaphthyl)]-2,3(2,5)-dihydro-3(5)-imino-2-methyl-1,2,4-triazine methanesulfonate] | IC50 [2]: 157 µM; inhibition at 10 µM [2]: 6%
7 | 794 µM | 101% | 198 to 200 °C | Nc1nnc(-c2ccccc2Br)c(N)n1 [CEN-68, 3,5-Diamino-6-(2-bromophenyl)-1,2,4-triazine] | 
8 | 49 µM | 5% |  | CCn1nc(-c2ccc3ccccc3c2)c(N)nc1=N [CEN-75, 5(3)-Amino-6-(2-naphthyl)-2,3(2,5)-dihydro-3(5)-imino-2-ethyl-1,2,4-triazine methanesulfonate] | IC50 [2]: 3 µM; inhibition at 10 µM [2]: 78%
9 | 813 µM | 81% | 199 to 200 °C | Nc1nnc(-c2cccc(OC(F)(F)C(F)F)c2)c(N)n1 [CEN-108, 3,5-Diamino-6-[3-(1,1,2,2-tetrafluoroethoxy)phenyl]-1,2,4-triazine] | 
10 | > 1000 µM | 80% | 220 to 222 °C | Nc1nnc(-c2ccc3c(c2)OCCO3)c(N)n1 [CEN-109, 3,5-Diamino-6-(3,4-ethylenedioxyphenyl)-1,2,4-triazine] | 
11 | 162 µM | 13% | 157 to 159 °C | Nc1nnc(C2(c3ccc(Cl)cc3)CC2)c(N)n1 [CEN-154, 3,5-Diamino-6-[1-(4-chlorophenyl)-1-cyclopropyl]-1,2,4-triazine] | 
12 | 69.2 µM | 4% | 240 to 242 °C | Nc1nnc(-c2ccccc2Cl)c(-c2ccccc2Cl)n1 [CEN-132, 3-Amino-5,6-bis(2-chlorophenyl)-1,2,4-triazine] | 
13 | 776 µM | 66% | 221 to 222 °C | Nc1nnc(-c2cccc(Br)c2)c(N)n1 [CEN-69, 3,5-Diamino-6-(3-bromophenyl)-1,2,4-triazine] | 
14 | 44 µM | 97% | 215 to 217 °C (dec.) | Nc1nnc(-c2cccc(-c3ccccc3)c2)c(N)n1 [CEN-159, 3,5-Diamino-6-(3-phenylphenyl)-1,2,4-triazine] | 
15 | 67.6 µM | 76% | 142 to 144 °C | COc1cc(-c2nnc(N)nc2N)c(OC)c2ccccc12 [CEN-151] | 
16 | > 2000 µM | 27% | 274 to 276 °C | COc1ccc2cc(OC)c(-c3nnc(N)nc3N)cc2c1 [CEN-143] | 
17 | 204 µM |  |  | 3,5-Diamino-6-[1-(2,5-dimethoxynaphthyl)-1,2,4-triazine [CEN-157] | hERG % inhibition @ 10 μM [2]: 6%; IC50 [2, 4]: 157 µM; [3H]mtx binding (% inhibition @ 125 μM) ([3]; 125 μM): −1%
18 | 74 µM | 101% | 275 to 276 °C | CC(C)(C)c1ccc(-c2nnc(N)nc2N)cc1 [CEN-181, 3,5-Diamino-6-(4-tertbutylphenyl)-1,2,4-triazine] | 

Row | IC50 [1] | inhibition at 125 µM ([3]; 125 μM) | melting point | Molecule | also measured
19 | 288 µM | 46% | 252 to 254 °C | COc1cc2ccccc2cc1-c1nnc(N)nc1N [CEN-139] | 
20 | 7590 µM | 6% | 215 to 217 °C | Nc1nnc(-c2sccc2Br)c(N)n1 [CEN-125, 3,5-Diamino-6-[2-(3-bromothienyl)]-1,2,4-triazine] | 
21 | > 2000 µM | 67% | 312 to 314 °C | Nc1nnc(-c2ccc(Cl)s2)c(N)n1 [CEN-138, 3,5-Diamino-6-[2-(5-chlorothienyl)]-1,2,4-triazine] | 
22 | 447 µM | 99% | 278 to 280 °C | CC(C)(C)c1cc(-c2nnc(N)nc2N)cc(C(C)(C)C)c1 [CEN-187, 3,5-Diamino-6-(3,5-di-tert-butylphenyl)-1,2,4-triazine] | 
23 | 468 µM | 2% |  | CCn1nc(-c2cc(C(C)(C)C)cc(C(C)(C)C)c2)c(N)nc1=N [CEN-189, 5(3)-Amino-6-(3,5 bis-tert-butylphenyl)-2,3(2,5)-dihydro-3(5)-imino-2-ethyl-1,2,4-triazine methanesulphonate] | IC50 [2]: 90 µM; inhibition at 10 µM [2]: 10%
24 | 288 µM | 94% | 205 to 207 °C | Nc1nnc(-c2ccc(OCc3ccccc3)cc2)c(N)n1 [CEN-131, 3,5-Diamino-6-(4-Benzyloxyphenyl)-1,2,4-triazine] | 
25 | 60.3 µM | 4% | 197 to 199 °C | CC(c1ccccc1)(c1ccccc1)c1nnc(N)nc1N [CEN-147, 3,5-Diamino-6-(1,1-diphenylethyl)-1,2,4-triazine] | 
26 | > 1000 µM | -8% | 282 to 284 °C | Nc1nnc(-c2ccc(-c3ccccc3)cc2)c(N)n1 [CEN-82, 3,5-Diamino-6-(4-biphenyl)-1,2,4-triazine] | 
27 | 589 µM | 4% |  | Nc1nnc(-c2ccc(Cl)nc2Cl)c(N)n1 [CEN-174, 3,5-Diamino-6-[3-(2,6-dichloropyidyl)]-1,2,4-triazine] | IC50 [2]: 101 µM; inhibition at 10 µM [2]: 9%
28 | 871 µM | 90% | 265 to 268 °C | Nc1nnc(-c2ccc(Br)s2)c(N)n1 [CEN-124, 3,5-Diamino-6-[2-(5-bromothienyl)]-1,2,4-triazine] | 
29 | 9.6 µM | 39% | 205 to 207 °C | Nc1nnc(C2(c3ccc(Cl)cc3)CCCCC2)c(N)n1 [CEN-145, 3,5-Diamino-6-[1-(4-chlorophenyl)-1-cyclohexyl]-1,2,4-triazine] | 
30 | 190 µM | 82% | 163 to 165 °C | Nc1cnc(-c2ccc3ccccc3c2)c(N)n1 [CEN-88, 2,6-Diamino-3-(2-naphthyl)pyrazine] | 
31 | > 2000 µM | 44% | 271 to 272 °C (dec.) | Nc1nnc(-c2cccs2)c(N)n1 [CEN-57, 3,5-Diamino-6-(2-thienyl)-1,2,4-triazine] | 
32 | 41.7 µM | 86% | 284 to 286 °C | Nc1nnc(-c2cccc(OCc3ccccc3)c2)c(N)n1 [CEN-123, 3,5-Diamino-6-(3-Benzyloxyphenyl)-1,2,4-triazine] | 
33 | 2000 µM | 65% | 344 to 345 °C | Nc1nnc(-c2cc3ccccc3s2)c(N)n1 [CEN-113, 3,5-Diamino-6-[2-(benzo[b]thiophenyl)]-1,2,4-triazine] | 
34 | > 2000 µM | 12% | 154 to 155 °C | Nc1nnc(-c2ccccc2OC(F)F)c(N)n1 [CEN-142] | 
35 | 91 µM |  | 218 to 220 °C | Nc1nnc(-c2cc(C(F)(F)F)cc(Cl)c2F)c(N)n1 [CEN-197, 3,5-Diamino-6-(3-chloro-2-fluoro-5-trifluoromethylphenyl)-1,2,4-triazine] | inhibition at 99 µM ([3]; read-out: [3H]mtx binding % inhibition (* 99 μM, *** uses fresh batch of supernatant), 99 μM, fresh batch of supernatant): 95%

Row | Molecule | IC50 [1] | inhibition at 125 µM ([3]; 125 μM) | melting point | also measured
36 | CS(=O)(=O)O.Cn1nc(C23CC4CC(CC(C4)C2)C3)c(N)nc1=N [CEN-100, 6-Adamantyl-5(3)-amino-2,3(2,5)-dihydro-3(5)-imino-2-methyl-1,2,4-triazine methanesulfonate] | 77.6 µM |  |  | hERG % inhibition @ 10 μM [2]: 30%; IC50 [2, 4]: 23 µM; [3H]mtx binding (% inhibition @ 125 μM) ([3]; 125 μM): 10%
37 | Nc1nnc2c3ccccc3c3ccccc3c2n1 [CEN-128] | 251 µM |  |  | IC50 [2]: 53 µM; inhibition at 10 µM [2]: 16%; inhibition at 125 µM [3]: 0%
